Measured values published in patent publication US20230077290A1, “HEAVY METAL-FREE CALCIUM HYDROXIDE-BASED ACTIVE SUBSTANCE” (KALKFABRIK NETSTAL AG, priority 2016, published 2023).

How the values were obtained:
Plasmopara viticola = assay: Tests against Plasmopara viticola on grapes, dust application before inoculation; type: in vivo, Plasmopara viticola on Chasselas grapes; settings: for % leaf surface with symptoms of infection: average +/- standard deviation; for effect on Plasmopara viticola infection, in words: grapes, dust application, positive control Kocide Opti 0.003%
Experimental: Tests Against Plasmopara Viticola on Grapes The above-describe samples were tested in an independent plant research institute. The tests were set up as blind tests parallel to the following controls presented below. Study Design: […] For inoculation, the abaxial side of the fully developed leaves of Plasmopara viticola (50,000 spores/mL) were sprayed, and the entire plant was inoculated. Two types of all of the tests were performed: […] Dust application on the dry test plant before inoculation with the pathogen (so-called standard method) […] Dust application on a wet test plant before inoculation with the pathogen. […] Portion of infected leaf surface in percent of the overall leaf surface. The combined “efficacy severity” was then calculated from this in percent. Controls: […]

[1] = known compounds with very high capacity; cited from earlier work
[2] = Type 1 (dry), study of examples 1 and 2
[3] = Type 2 (wet), study of examples 1 and 2
[4] = Type 1 (dry), study of examples 3 and 4
[5] = Type 2 (wet), study of examples 3 and 4

## [Ca+2].[OH-].[OH-] [Example 2, Calcium hydroxide]
Plasmopara viticola; Type 1 (dry) dust application on dry plant, study of examples 1 and 2
  % leaf surface with symptoms of infection: 50 +/− 22%
Plasmopara viticola; [2]
  % infected leaves: 89 +/− 17%
  Efficacy severity: 46.8%
Plasmopara viticola; Type 2 (wet) dust application on wet plant, study of examples 1 and 2
  % leaf surface with symptoms of infection: 59 +/− 22%
Plasmopara viticola; [3]
  % infected leaves: 93 +/− 10%
  Efficacy severity: 36.4%
Plasmopara viticola
  effect on Plasmopara viticola infection, in words: only a slight reduction of the infection

## [Na+].[OH-] [NaOH]
[1]
  acid neutralization capacity bH+: 25 mol/kg

## Calcium stearate [Example 4]
Plasmopara viticola; [4]
  Efficacy severity: 7.3%
  % leaf surface with symptoms of infection: 62 +/− 20%
Plasmopara viticola; Type 1 (wet) as printed, study of examples 3 and 4
  % infected leaves: 93 +/− 10%
Plasmopara viticola; [5]
  % infected leaves: 91 +/− 10%
  Efficacy severity: 13.3%
  % leaf surface with symptoms of infection: 58 +/− 8%
Plasmopara viticola
  effect on Plasmopara viticola infection, in words: inactive

## N [NH3]
[1]
  acid neutralization capacity bH+: 59 mol/kg

## O=C([O-])[O-].[Li+].[Li+] [Li2CO3]
[1]
  acid neutralization capacity bH+: 27 mol/kg
